Measurements as given in patent publication US8759535B2, “Substituted fused imidazole derivatives, pharmaceutical compositions, and methods of use thereof” (High Point Pharmaceuticals, LLC, priority 2010, dated 2014).
Structures can show the parent of a compound that is named as a salt.

system: HMOX1; experiment: HMOX1 Protein Assay (immunostaining of HO-1 in NHLF cells, GE InCell 1000); type: cell-based; conditions: Homo sapiens, fold change above DMSO treated cells, 3 μM compound (asterisk), 16 h
Method: Cell Culture. Normal Human Fibroblast (NHLF), were obtained from Lonza. Cultures of cells were maintained in Fibroblast Growth Medium (FGM-2) medium supplemented with 2% fetal bovine serum (FBS), Fibroblast Growth Factor (hFGF-B) 0.5 mL, Insulin 0.5 mL, gentamicin/amphotericin-B 0.5 mL at 37° C. in a humidified atmosphere of 5% CO2. Cells were grown to 80% confluence before treating.
HMOX1 Protein Assay. NHLF cells were grown to 80% confluency and harvested by washing once with HEPES and then trypsinized. Equal numbers (2×10^3 cells per well) of NHLF cells were plated in 384 well optilux tissue culture (BD) plates. Cells were incubated overnight in FGM-2 medium prior to exposure to compound. Cells were treated with either vehicle (DMSO) or compound (dissolved in vehicle) for 16 h. Cells were washed 2× with 1×PBS and fixed with 4% Paraformaldyhyde for 15 min. The fixed cells were then permeabalized with 0.1% Triton X-100 and blocked with 5% BSA in 1×PBS 0.05% Tween-20 for 15 min. HO-1 antibody (abcam) was used for immunostaining at 1:300 dilution in 1% BSA in 1×PBS for 1 hour. Cells were washed 2× with 1×PBS and secondary antibody goat anti-mouse Alexa 488 1:400 dilution (Invitrogen); Hoechst 1:2000 (Invitrogen) in 1% BSA in 1×PBS for 1 hour. Plate was washed 5× with 1×PBS and read at Hoechst Ex.360 […]; Alexa 488 Ex.480 Em. 535 using GE InCell 1000. Results analyzed using GE InCell Analyzer software. Heme oxygenase data represents the fold change above DMSO treated cells.
In general, the fold induction data are reported for 5 μM concentration (i.e., μ-moles of compound to total volume, where the solvent is about 99.2% media and 0.8% DMSO). In some instances, the reported data are for 3 μM concentration, which are indicated by an asterisk (*).

| SMILES | fold induction at 3 µM |
| --- | --- |
| Cn1c(Nc2nc3ccc(Cl)cc3s2)nc2cc(C(=O)NCCF)ccc21 [Example 209, 2-(6-Chloro-benzothiazol-2-ylamino)-1-methyl-1H-benzoimidazole-5-carboxylic acid (2-fluoro-ethyl)-amide] | 14.2 |
| CCOc1ccc2nc(Nc3nc4cc(C(=O)NCC(=O)N(C)C)ccc4n3C)sc2c1 [Example 364, 2-(6-Ethoxy-benzothiazol-2-ylamino)-1-methyl-1H-benzoimidazole-5-carboxylic acid dimethylcarbamoylmethyl-amide] | 27.8 |
| Cn1c(Nc2nc3ccc(C(F)(F)F)cc3s2)nc2cc(C(=O)NCCC(=O)N3CCOCC3)ccc21 [Example 374, 1-Methyl-2-(6-trifluoromethyl-benzothiazol-2-ylamino)-1H-benzoimidazole-5-carboxylic acid (3-morpholin-4-yl-3-oxo-propyl)-amide] | 34.2 |
| CO[C@H]1CCCN(C(=O)CNC(=O)c2ccc3c(c2)nc(Nc2nc4ccc(C(F)(F)F)cc4s2)n3C)C1 [Example 445, 1-Methyl-2-(6-trifluoromethyl-benzothiazol-2-ylamino)-1H-benzoimidazole-5-carboxylic acid [2-((S)-3-methoxy-piperidin-1-yl)-2-oxo-ethyl]-amide] | 36.4 |

same assay, conditions: Homo sapiens, fold change above DMSO treated cells, 5 μM compound, 16 h

| SMILES | fold induction at 5 µM |
| --- | --- |
| CCn1c(Nc2nc3ccc(Oc4cccnc4)cc3s2)nc2cc(C(=O)NCCOC)ccc21 [Example 191, 1-Ethyl-2-[6-(pyridin-3-yloxy)-benzothiazol-2-ylamino]-1H-benzoimidazole-5-carboxylic acid (2-methoxy-ethyl)-amide] | 33.8 |
| Cn1c(Nc2nc3ccc(OC(F)(F)F)cc3s2)nc2cc(C(=O)NCC(=O)N3CCOCC3)cnc21 [Example 420, 3-Methyl-2-(6-trifluoromethoxy-benzothiazol-2-ylamino)-3H-imidazo[4,5-b]pyridine-6-carboxylic acid (2-morpholin-4-yl-2-oxo-ethyl)-amide] | 33 |
| Cn1c(Nc2nc3ccc(Cl)cc3s2)nc2cc(C(=O)NC3CCN(CCC(=O)O)C3)ccc21 (stereo not drawn) [Example 299, 3-(3-{[2-(6-Chloro-benzothiazol-2-ylamino)-1-methyl-1H-benzoimidazole-5-carbonyl]-amino}-pyrrolidin-1-yl)-propionic acid] | 16.7 |
| Cn1c(Nc2nc3ccc(OC(F)(F)F)cc3s2)nc2cc(C(=O)NC3CCCN(C(=O)OC(C)(C)C)C3)ccc21 (stereo not drawn) [Example 94, 3-{[1-Methyl-2-(6-trifluoromethoxy-benzothiazol-2-ylamino)-1H-benzoimidazole-5-carbonyl]-amino}-piperidine-1-carboxylic acid tert-butyl ester] | 1.2 |
| CN(C(=O)CNC(=O)c1ccc2c(c1)nc(Nc1nc3ccc(Cl)cc3s1)n2C)C1CCCNC1 (stereo not drawn) [Example 396, 2-(6-Chloro-benzothiazol-2-ylamino)-1-methyl-1H-benzoimidazole-5-carboxylic acid [(methyl-piperidin-3-yl-carbamoyl)-methyl]-amide hydrochloride] | 36 |
| CCn1c(Nc2nc3ccc(C(F)(F)F)cc3s2)nc2cc(C(=O)NCC(C)(C)OC)ccc21 [Example 184, 1-Ethyl-2-(6-trifluoromethyl-benzothiazol-2-ylamino)-1H-benzoimidazole-5-carboxylic acid (2-methoxy-2-methyl-propyl)-amide] | 9.5 |
| CCn1c(Nc2nc3ccc(OC(F)(F)F)cc3s2)nc2cc(C(=O)NC)ccc21 [Example 155, 1-Ethyl-2-(6-trifluoromethoxy-benzothiazol-2-ylamino)-1H-benzoimidazole-5-carboxylic acid methylamide] | 24.3 |
| Cn1c(Nc2nc3cc(F)ccc3s2)nc2cc(C(=O)O)ccc21 [Example 117, 2-(5-Fluoro-benzothiazol-2-ylamino)-1-methyl-1H-benzimidazole-5-carboxylic acid] | 28.8 |
| Cn1c(Nc2nc3ccc(Cl)cc3s2)nc2cc(C(=O)NC[C@H]3CC[C@H](CO)CC3)ccc21 [Example 255, 2-(6-Chloro-benzothiazol-2-ylamino)-1-methyl-1H-benzoimidazole-5-carboxylic acid (trans-4-hydroxymethyl-cyclohexylmethyl)-amide] | 49.3 |
| Cn1c(Nc2nc3ccc(OC(F)(F)F)cc3s2)nc2cc(C(=O)NCCc3cccc(O)c3)ccc21 [Example 252, 1-Methyl-2-(6-trifluoromethoxy-benzothiazol-2-ylamino)-1H-benzoimidazole-5-carboxylic acid [2-(3-hydroxy-phenyl)-ethyl]-amide] | 13.1 |
| CCn1c(Nc2nc3ccc(Cl)cc3s2)nc2cc(C(=O)NCCF)ccc21 [Example 176, 2-(6-Chloro-benzothiazol-2-ylamino)-1-ethyl-1H-benzoimidazole-5-carboxylic acid (2-fluoro-ethyl)-amide] | 25.8 |
| CNCC1CCCN(C(=O)CNC(=O)c2ccc3c(c2)nc(Nc2nc4ccc(Cl)cc4s2)n3C)C1 (stereo not drawn) [Example 460, 2-(6-Chloro-benzothiazol-2-ylamino)-1-methyl-1H-benzoimidazole-5-carboxylic acid [2-(3-methylaminomethyl-piperidin-1-yl)-2-oxo-ethyl]-amid hydrochloride] | 27.5 |
| CN(C(=O)CNC(=O)c1ccc2c(c1)nc(Nc1nc3ccc(Cl)cc3s1)n2C)C1CCNC1 (stereo not drawn) [Example 394, 2-(6-Chloro-benzothiazol-2-ylamino)-1-methyl-1H-benzoimidazole-5-carboxylic acid [(methyl-pyrrolidin-3-yl-carbamoyl)-methyl]-amide hydrochloride] | 37.6 |
| COC(=O)c1ccc2c(c1)nc(Nc1nc3cc(OC(F)(F)F)ccc3s1)n2C [Example 99, 1-Methyl-2-(5-trifluoromethoxy-benzothiazol-2-ylamino)-1H-benzoimidazole-5-carboxylic acid methyl ester] | 8.5 |
| CNC(=O)c1ccc2c(c1)nc(Nc1nc3ccc(S(C)(=O)=O)cc3s1)n2C [Example 126, 2-(6-Methanesulfonyl-benzothiazol-2-ylamino)-1-methyl-1H-benzimidazole-5-carboxylic acid methylamide] | 4.6 |
| Cn1c(Nc2nc3ccc(OC(F)(F)F)cc3s2)nc2cc(C(=O)NC3CCN(S(C)(=O)=O)CC3)ccc21 [Example 90, 1-Methyl-2-(6-trifluoromethoxy-benzothiazol-2-ylamino)-1H-benzoimidazole-5-carboxylic acid (1-methanesulfonyl-piperidin-4-yl)-amide] | 8.1 |
| Cn1c(Nc2nc3ccc(OC(F)(F)F)cc3s2)nc2cc(C(=O)NCC3COCCO3)ccc21 (stereo not drawn) [Example 49, 1-Methyl-2-(6-trifluoromethoxy-benzothiazol-2-ylamino)-1H-benzoimidazole-5-carboxylic acid ([1,4]dioxan-2-ylmethyl)-amide] | 23.1 |
| Cn1c(Nc2nc3ccc(Cl)cc3s2)nc2cc(C(=O)NCC(=O)NC3CCOC3)ccc21 (stereo not drawn) [Example 384, 2-(6-Chloro-benzothiazol-2-ylamino)-1-methyl-1H-benzoimidazole-5-carboxylic acid [(tetrahydro-furan-3-ylcarbamoyl)-methyl]-amide] | 26 |
| CSCCNC(=O)c1ccc2c(c1)nc(Nc1nc3ccc(S(C)(=O)=O)cc3s1)n2C [Example 130, 2-(6-Methanesulfonyl-benzothiazol-2-ylamino)-1-methyl-1H-benzimidazole-5-carboxylic acid (2-methylsulfanyl-ethyl)-amide] | 5.3 |
| Cn1c(Nc2nc3ccc(OC(F)(F)F)cc3s2)nc2cc(C(=O)N3CCCC3)ccc21 [Example 7, [1-Methyl-2-(6-trifluoromethoxy-benzothiazol-2-ylamino)-1H-benzoimidazol-5-yl]-pyrrolidin-1-yl-methanone] | 5.4 |
| Cn1c(Nc2nc3ccc(OC(F)(F)F)cc3s2)nc2cc(C(=O)N[C@@H]3[C@@H](O)[C@H](O)[C@@H](CO)O[C@@H]3O)ccc21 [Example 283, 1-Methyl-2-(6-trifluoromethoxy-benzothiazol-2-ylamino)-1H-benzoimidazole-5-carboxylic acid ((2S,3R,4R,5S,6R)-2,4,5-trihydroxy-6-hydroxymethyl-tetrahydro-pyran-3-yl)-amide] | 30.2 |
| CN1CCN(C(=O)CNC(=O)c2ccc3c(c2)nc(Nc2nc4ccc(Cl)cc4s2)n3C)CC1 [Example 426, 2-(6-Chloro-benzothiazol-2-ylamino)-1-methyl-1H-benzoimidazole-5-carboxylic acid [2-(4-methyl-piperazin-1-yl)-2-oxo-ethyl]-amide] | 25.1 |
| Cn1c(Nc2nc3ccc(OC(F)(F)F)cc3s2)nc2cc(C(=O)NCc3ccc(O)cc3)ccc21 [Example 230, 1-Methyl-2-(6-trifluoromethoxy-benzothiazol-2-ylamino)-1H-benzoimidazole-5-carboxylic acid 4-hydroxy-benzylamide] | 29.8 |
